Measurements reported in patent US20210121527A1, “METHODS OF TREATING MINIMAL RESIDUAL CANCER” (ICAHN SCHOOL OF MEDICINE AT MOUNT SINAI, priority 2018, published 2021).

Experiments:
[1] = molecular target: T1, Recombinant human EIF2AK3 (PERK) catalytic domain (Homo sapiens, UniProt Q9NZJ5); assay: PERK biochemical TR-FRET kinase assay using purified eIF2a as substrate; conditions: read-out: PERK Enzyme IC50
T1 construct: catalytic domain (amino acids 536-1116; Cat # PV5107); purchased Invitrogen (Carlsbad, Calif.) PV5107
T1 sequence (Q9NZJ5 536-1116): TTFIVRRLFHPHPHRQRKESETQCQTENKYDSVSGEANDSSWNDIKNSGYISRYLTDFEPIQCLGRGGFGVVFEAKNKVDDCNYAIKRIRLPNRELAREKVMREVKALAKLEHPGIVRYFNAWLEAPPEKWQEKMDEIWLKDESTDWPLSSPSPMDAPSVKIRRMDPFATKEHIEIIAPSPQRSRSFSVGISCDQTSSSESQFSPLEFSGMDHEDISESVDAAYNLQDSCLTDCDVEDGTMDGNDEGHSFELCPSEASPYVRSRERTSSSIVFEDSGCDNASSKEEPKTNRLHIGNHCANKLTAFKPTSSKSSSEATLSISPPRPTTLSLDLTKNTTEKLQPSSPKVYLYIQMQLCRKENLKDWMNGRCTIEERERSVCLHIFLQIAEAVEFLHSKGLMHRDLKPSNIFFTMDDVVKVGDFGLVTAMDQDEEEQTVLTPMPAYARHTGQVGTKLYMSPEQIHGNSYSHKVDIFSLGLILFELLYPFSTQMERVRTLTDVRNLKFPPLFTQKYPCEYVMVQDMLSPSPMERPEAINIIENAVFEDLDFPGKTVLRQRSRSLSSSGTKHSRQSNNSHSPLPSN
Description: (§1) TR-FRET kinase assays were performed in the absence or presence of inhibitors in a reaction buffer consisting of 50 mM HEPES, pH 7.5, 10 mMMgCl2, 1.0 mM EGTA, and 0.01% Brij-35, and 100-200 nM GFP-eIF2a substrate. […] Following the addition of test compound, the reaction was initiated by addition of enzyme and incubated at room temperature for 45 minutes. The reaction was stopped by addition of EDTA to a final concentration of 10 mM and Terbium-labelled phospho-eIF2α antibody was added at a final concentration of 2 nM and incubated for 90 minutes. The resulting fluorescence was monitored in an EnVison® Multilabel reader (PerkinElmer, Waltham, Mass.). TR-FRET ratios and the resulting IC50 values were determined from the fitted inhibition curves. Biochemical specificity profiling was performed at Cerep (Redmond, Wash.) and DiscoverX (San Diego, Calif.).

GCN2 catalytic domain = molecular target: T2, GCN2 catalytic domain (Homo sapiens, UniProt Q9P2K8); assay: GCN2 biochemical TR-FRET kinase assay using purified eIF2a as substrate; conditions: read-out: GCN2 Enzyme IC50
T2 construct: HIS-SUMO-GCN2 catalytic domain (amino acids 584-1019); HIS (N); SUMO (N); made in house; host or cells: E. coli
T2 sequence (Q9P2K8 584-1019): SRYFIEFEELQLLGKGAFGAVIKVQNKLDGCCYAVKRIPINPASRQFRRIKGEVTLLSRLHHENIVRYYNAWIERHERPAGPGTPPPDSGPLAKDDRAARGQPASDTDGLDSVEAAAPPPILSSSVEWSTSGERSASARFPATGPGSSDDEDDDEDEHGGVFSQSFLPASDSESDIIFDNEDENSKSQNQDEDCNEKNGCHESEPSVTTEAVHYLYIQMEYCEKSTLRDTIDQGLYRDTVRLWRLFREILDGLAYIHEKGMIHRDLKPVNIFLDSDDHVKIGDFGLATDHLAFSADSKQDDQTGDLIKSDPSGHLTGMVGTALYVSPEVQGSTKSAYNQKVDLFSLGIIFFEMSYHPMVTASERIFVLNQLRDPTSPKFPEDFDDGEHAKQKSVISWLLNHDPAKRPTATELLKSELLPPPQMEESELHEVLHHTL
Description: as §1

[2] = molecular target: T3, GCN2 (Kin.Dom.2,S808G) (EIF2AK4) (Homo sapiens, UniProt Q9P2K8, S808G); assay: DiscoveRx scanMAX kinase profiling; format: binding; conditions: read-out: Inhibition of GCN2/EIF2AK4 (KINOMEscan)
T3 construct: Kin.Dom.2; purchased DiscoverX (San Diego, Calif.) scanMAX
T3 sequence (Q9P2K8 590-1001 S808G limits assumed): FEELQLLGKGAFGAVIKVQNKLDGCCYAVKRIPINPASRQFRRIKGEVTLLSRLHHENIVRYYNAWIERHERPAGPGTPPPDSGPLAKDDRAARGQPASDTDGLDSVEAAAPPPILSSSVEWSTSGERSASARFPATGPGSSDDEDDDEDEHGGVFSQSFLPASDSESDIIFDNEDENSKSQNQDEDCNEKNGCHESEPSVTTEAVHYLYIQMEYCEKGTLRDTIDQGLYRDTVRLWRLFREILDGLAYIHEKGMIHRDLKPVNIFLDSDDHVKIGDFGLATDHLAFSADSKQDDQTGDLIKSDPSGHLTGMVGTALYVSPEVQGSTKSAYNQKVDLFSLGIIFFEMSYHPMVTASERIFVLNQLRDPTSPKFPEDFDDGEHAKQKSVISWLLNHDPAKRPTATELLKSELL
Description: as §1

PRKR (EIF2AK2) = molecular target: T4, PRKR (EIF2AK2) (Homo sapiens, UniProt P19525); assay: DiscoveRx scanMAX kinase profiling; format: binding; conditions: read-out: Inhibition of PRKR/EIF2AK2 (KINOMEscan)
T4 construct: purchased DiscoverX (San Diego, Calif.) scanMAX
T4 sequence (P19525 whole entry): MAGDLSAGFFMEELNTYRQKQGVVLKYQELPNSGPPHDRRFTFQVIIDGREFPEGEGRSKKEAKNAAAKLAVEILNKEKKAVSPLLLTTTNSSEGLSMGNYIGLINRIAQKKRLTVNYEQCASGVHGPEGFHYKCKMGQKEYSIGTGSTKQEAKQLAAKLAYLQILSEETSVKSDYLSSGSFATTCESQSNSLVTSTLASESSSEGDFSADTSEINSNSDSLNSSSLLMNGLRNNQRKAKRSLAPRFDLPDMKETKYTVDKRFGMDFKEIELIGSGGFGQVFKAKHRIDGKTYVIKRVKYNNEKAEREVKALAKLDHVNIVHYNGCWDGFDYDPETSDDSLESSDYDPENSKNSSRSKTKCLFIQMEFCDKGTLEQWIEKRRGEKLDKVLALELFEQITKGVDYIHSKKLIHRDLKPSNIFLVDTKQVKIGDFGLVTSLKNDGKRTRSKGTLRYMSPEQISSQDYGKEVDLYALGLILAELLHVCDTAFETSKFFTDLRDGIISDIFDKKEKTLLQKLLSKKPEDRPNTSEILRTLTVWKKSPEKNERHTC
Description: as §1

SMILES | IC50 [1] | IC50 (GCN2 catalytic domain) | inhibition at 0.2 µM [2] | inhibition at 2 µM [2] | inhibition at 20 µM [2] | inhibition at 0.2 µM (PRKR (EIF2AK2)) | inhibition at 2 µM (PRKR (EIF2AK2)) | inhibition at 20 µM (PRKR (EIF2AK2))
Cc1cccc(CC(=O)N2CCc3c2ccc(-c2cn(C)c4ncnc(N)c24)c3F)n1 [GSK2656157, reference compound] | 8 nM | > 200000 nM | 7% | 13% | 79% | 20% | 45% | 67%
CNC(=O)c1nc(-c2ccc(NC(=O)[C@H](O)c3cc(F)cc(F)c3)cc2C)cnc1N [LY2, 3-amino-6-[4-[[(2R)-2-(3,5-difluorophenyl)-2-hydroxy-acetyl]amino]-2-methyl-phenyl]-N-methyl-pyrazine-2-carboxamide] | 2 nM | 10800 nM | – | – | – | – | – | –
Cc1cc(NC(=O)[C@H](O)c2cccc(F)c2)ccc1-c1cn(C)c2ncnc(N)c12 [LY3, (2R)-N-[4-(4-amino-7-methyl-pyrrolo[2,3-d]pyrimidin-5-yl)-3-methyl-phenyl]-2-(3-fluorophenyl)-2-hydroxy-acetamide] | 2 nM | 16400 nM | – | – | – | – | – | –
Cc1cc(NC(=O)[C@H](O)c2cc(F)cc(F)c2)ccc1-c1cnc(N)c(C(=O)NC(C)C)c1 [LY4, 2-amino-5-[4-[[(2R)-2-(3,5-difluorophenyl)-2-hydroxy-acetyl]amino]-2-methyl-phenyl]-N-isopropyl-pyridine-3-carboxamide] | 2 nM | 18100 nM | 0% | 0% | 28% | 0% | 0% | 0%
